Laboratory results from US20210301261A1, “HUMAN LIVER MICROPHYSIOLOGY PLATFORM AND SELF ASSEMBLY LIVER ACINUS MODEL AND METHODS OF THEIR USE” (priority 2014, published 2021).
“Also recorded” adds a separate entry of the source. Like-named read-outs stand apart in the source and are kept apart here.

Experiments:
[1] = in vivo; cited from earlier work
liver [2] = settings: cited from earlier work; for liver injury incidents/million prescriptions: human; for Human/Animal Toxicology (findings in words, wrapped cells): in vivo
liver [3] = settings: cited from earlier work
[4] = tested on: hepatocytes in SALA model; assay: Oxidative stress response in biosensor transduced hepatocytes in SALA model; format: cell-based, human; settings: 0 to 15 hr treatment period
Description: Image processing at each time point provides kinetic physiological responses is provided in Panel D.

LX-2 stellate cells = settings: 30 nM
Description: Day 21 Immunofluorescence images of a SALA liver vehicle treated 21 days, fixed, and reacted against α-Human Collagen type ½ is provided in panel C. […] Nuclei are false colored blue in all images.

[5] = tested on: hepatocytes in SALA model (Cyp3A4 signature metabolite); assay: LC-MS of efflux media: metabolic clearance and metabolite production in SALA model; settings: 5 μM testosterone in influx media; efflux collected over 24 hr at 5 μl/hr; day 10
Description: (§1) Efflux media was collected for measurements of organ model health using assays for lactate dehydrogenase (LDH) release, and albumin, and urea synthesis. LDH is released from cells under conditions of cytotoxic damage. Albumin and urea are secreted from functional hepatocytes. The media efflux was also used to monitor the presence of drug and metabolic products for PK. When compounds are included in the microfluidic media, hepatocytes are exposed to the compound and often biotransform them to a chemically distinct product. Mass spectrometry is a specific and sensitive method to observe these changes. Typically, ca. 15 microliters of media is collected for each biochemical and mass spec measurement (flow rate=5 microliters per hour.)

[6] = tested on: hepatocytes in SALA model; assay: Hepatocyte area measured in real-time with cytochrome C biosensor in SALA model; format: cell-based, human
Description: (§2) Correlation of propidium iodide (PI) uptake with cell area of hepatocytes is illustrated in FIG. 11. The cytochrome C biosensor is used to measure hepatocyte area in order to perform real-time measurements of apoptosis.

[7] = tested on: hepatocytes in SALA model; assay: Propidium iodide uptake of hepatocytes in SALA model; format: cell-based, human; settings: 200 μM trovafloxacin co-treated with 1 ug/ml LPS, compared to vehicle
Description: as §2

SALA model cells = settings: human
Description: as §1
Troglitazone (28 or 180 μM), or caffeine (600 μM, negative control) was introduced into the microfluidic device for 0-28 days.

[8] = tested on: hepatocytes in SALA model (bile canalicular efflux, BSEP); assay: Bile efflux (CMFDA fluorescence) in SALA model; format: cell-based, human; settings: 50 μM
[9] = tested on: hepatocyte sentinel cells; assay: Statistical validation of biosensors in hepatocyte sentinel cells in microplates; format: cell-based, human; settings: 50 μM
Description: A panel of biosensors was delivered through lentiviral transduction in multiple fluorescent protein colors initially validated in microplates for an acute response. An SSMD level of ≥2 is considered a statistically valid response.

U937 cells = assay: TNF-alpha release from LPS activated U937 cells; format: cell-based, human

O=c1n(CCCN2CCN(c3cccc(Cl)c3)CC2)nc2ccccn12 [Trazodone]
Cmax [1]: 5000 nM | liver injury incidents/million prescriptions (liver [2]): 0.21 incidents/million prescriptions | Human/Animal Toxicology (findings in words, wrapped cells) (liver [2]): extremely rare liver; also recorded: Mild ↑transaminases, | MOT (wrapped cells) (liver [3]): No known

CCc1nn(CCCN2CCN(c3cccc(Cl)c3)CC2)c(=O)n1CCOc1ccccc1 [Nefazodone]
ROS generation [4]: increase of ROS generation | mitochondrial function [4]: decrease in mitochondrial function | oxidative stress in hepatocytes [4]: induces oxidative stress | Cmax [1]: 900 nM | liver injury incidents/million prescriptions (liver [2]): 105 incidents/million incidents/million prescriptions | Human/Animal Toxicology (findings in words, wrapped cells) (liver [2]): Acute hepatitis; also recorded: Centrilobular (zone 3); also recorded: Cholestasis, apoptosis | MOT (wrapped cells) (liver [3]): Mitochondrial and ROS and Bile Efflux

CN(Cc1cnc2nc(N)nc(N)c2n1)c1ccc(C(=O)N[C@@H](CCC(=O)O)C(=O)O)cc1 [methotrexate]
expression of collagen type 1A2 protein in LX-2 stellate cells (LX-2 stellate cells; day 21, relative to vehicle control): increased | LX-2 stellate cell division, transmigration and accumulation in hepatocyte layer (LX-2 stellate cells; over 21 days, compared with vehicle (1.0% DMSO)): accelerated rate

C[C@]12CC[C@H]3[C@@H](CCC4=CC(=O)CC[C@@]43C)[C@@H]1CC[C@@H]2O [testosterone]
testosterone exits unchanged through the device (ratio of mass area under the curves) [5]: 27%

N[C@@H]1[C@H]2CN(c3nc4c(cc3F)c(=O)c(C(=O)O)cn4-c3ccc(F)cc3F)C[C@@H]12 [trovafloxacin]
hepatocyte area ([6]; 200 μM trovafloxacin alone, day 7): decrease in hepatocyte area | cell area of hepatocytes ([6]; 200 μM trovafloxacin co-treated with 1 ug/ml LPS, compared to vehicle (1% DMSO)): reduction in cell area | hepatocyte area ([6]; 200 μM trovafloxacin plus 1 ug/ml LPS, day 5): decrease in hepatocyte area | propidium iodide (PI) uptake [7]: increased PI uptake | propidium iodide (PI) uptake ([7]; listed as trovofloxacin): increase in propidium iodide uptake

Cc1c(C)c2c(c(C)c1O)CCC(C)(COc1ccc(CC3SC(=O)NC3=O)cc1)O2 (stereo not drawn) [Troglitazone]
release of LDH, time of peak loss (SALA model cells; 28 μM): ~13 days | release of LDH, time of peak loss (SALA model cells; 180 μM): ~4 days | CMFDA dye uptake and efflux in hepatocytes ([8]; 10 day treatment, monitored 60 minutes, compared to vehicle): slower uptake and inhibition of efflux | hepatocyte retention of dye ([8]; at 60 minutes): increased hepatocyte retention of dye | SSMD, Bile canalicular efflux (CMFDA) [9]: 11 | Cmax [1]: 1800 nM | liver injury incidents/million prescriptions (liver [2]): Up to 1000 incidents/million prescriptions | Human/Animal Toxicology (findings in words, wrapped cells) (liver [2]): Moderate to severe; also recorded: Variable necrosis,; also recorded: cholestasis,; also recorded: inflammatory | MOT (wrapped cells) (liver [3]): Mitochondrial; also recorded: BSEP inhibitor

CS(=O)(=O)Nc1ccc([N+](=O)[O-])cc1Oc1ccccc1 [Nimesulide]
LDH leakage, time of peak (SALA model cells; 210 μM): ~5 days

Lipopolysaccharide [LPS]
EC50 of TNF-alpha release (U937 cells): 0.7 µg/mL
